Reference: ChEMBL document CHEMBL5143706, “2-Alkyl substituted benzimidazoles as a new class of selective AT2 receptor ligands” (Bioorg Med Chem, 2022)

Columns and labels:
[1] = Displacement of [125-I]-angiotensin II from AT2R in pig myometrial membrane assessed as inhibition constant incubated for 1.5 hrs by gamma counter analysis; assay type: cell membranes, Sus scrofa, Myometrium
[2] = molecular target: T1, Type-2 angiotensin II receptor (Homo sapiens, UniProt P50052); experiment: Displacement of [125-I]-[Sar1Ile8]-angiotensin II from human AT2R expressed in HEK293 cell membrane assessed as inhibition constant by radioligand binding assay; assay type: cell membranes
T1 sequence (P50052 whole entry): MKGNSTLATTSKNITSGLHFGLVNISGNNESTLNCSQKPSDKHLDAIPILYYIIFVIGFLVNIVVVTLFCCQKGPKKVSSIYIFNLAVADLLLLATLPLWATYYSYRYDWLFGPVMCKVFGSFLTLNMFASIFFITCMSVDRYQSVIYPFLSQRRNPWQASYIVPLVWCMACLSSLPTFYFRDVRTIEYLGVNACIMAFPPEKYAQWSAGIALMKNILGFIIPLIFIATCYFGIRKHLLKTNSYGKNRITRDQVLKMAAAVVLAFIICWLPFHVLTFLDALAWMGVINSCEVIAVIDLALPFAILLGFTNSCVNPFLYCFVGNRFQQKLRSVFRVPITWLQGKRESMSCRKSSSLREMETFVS

[3] = molecular target: T2, Type-1 angiotensin II receptor (Homo sapiens, UniProt P30556); experiment: Displacement of [125-I]-[Sar1Ile8]-angiotensin II from human AT1R expressed in HEK293 cell membrane assessed as inhibition constant by radioligand binding assay; assay type: cell membranes
T2 sequence (P30556 whole entry): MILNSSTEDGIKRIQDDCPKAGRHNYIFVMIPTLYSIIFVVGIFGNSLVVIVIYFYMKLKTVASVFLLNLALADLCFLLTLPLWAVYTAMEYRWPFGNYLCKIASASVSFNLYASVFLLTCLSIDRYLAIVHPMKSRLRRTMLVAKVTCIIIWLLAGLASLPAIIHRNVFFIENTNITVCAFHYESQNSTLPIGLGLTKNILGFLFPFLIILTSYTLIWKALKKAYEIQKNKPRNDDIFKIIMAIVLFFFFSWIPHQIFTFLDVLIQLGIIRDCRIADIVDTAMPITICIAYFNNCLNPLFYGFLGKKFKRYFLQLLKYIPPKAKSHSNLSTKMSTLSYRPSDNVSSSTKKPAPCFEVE

[4] = Metabolic stability in human liver microsomes assessed as half life at 1 uM preincubated for 5 mins followed by NADPH addition and measured upto 60 mins by HPLC-MS/MS analysis; assay type: ADME, Microsome; conditions: time < 65 min
[5] = Metabolic stability in Sprague-Dawley rat liver microsomes assessed as half life at 1 uM preincubated for 5 mins followed by NADPH addition and measured upto 60 mins by HPLC-MS/MS analysis; assay type: ADME, Microsome
[6] = Metabolic stability in CD-1 mouse liver microsomes assessed as half life at 1 uM preincubated for 5 mins followed by NADPH addition and measured upto 60 mins by HPLC-MS/MS analysis; assay type: ADME, Microsome; conditions: time < 65 min
[7] = organism: Homo sapiens; experiment: Selectivity index, ratio of Ki for displacement of [125-I]-[Sar1Ile8]-angiotensin II from human AT2R expressed in HEK293 cell membrane to Ki for displacement of [125-I]-[Sar1Ile8]-angiotensin II from human AT1R expressed in HEK293 cell membrane; assay type: cell membranes

SMILES	Ki [1] [nM]	Ki [2] [nM]	Ki [3] [nM]	half-life at 1 µM [4] [min]	half-life at 1 µM [5] [min]	half-life at 1 µM [6] [min]	Ratio Ki [7]
CCCCOC(=O)NS(=O)(=O)c1sc(CC(C)C)cc1-c1ccc(Cn2ccnc2)cc1 [BULOXIBUTID]	0.4						
CCCc1ccc(S(=O)(=O)NC(=O)OCCC(F)(F)C(F)(F)F)c(-c2ccc(Cn3c(C(C)(C)C)nc4ccccc43)cc2)c1		6	> 3000				
CCCCOC(=O)NS(=O)(=O)c1ccc(CCC)cc1-c1ccc(Cn2c(CCCC)nc3ccccc32)cc1		9.2	180				
CCCc1ccc(S(=O)(=O)NC(=O)OCCCC(F)(F)F)c(-c2cc(F)c(Cn3c(C(C)(C)C)nc4ccccc43)c(F)c2)c1		12	> 3000	15	16	6	
CCCCOC(=O)NS(=O)(=O)c1ccc(CCC)cc1-c1cc(F)c(Cn2c(C(C)(C)C)nc3ccccc32)c(F)c1		11	> 3000				
CCCCOC(=O)NS(=O)(=O)c1ccc(CCC)cc1-c1ccc(Cn2c(C3CCC3)nc3ccccc32)cc1		12	400				
CCCCOC(=O)NS(=O)(=O)c1ccc(CCC)cc1-c1ccc(Cn2c(CC(C)C)nc3ccccc32)cc1		19	> 3000				
CCCCOC(=O)NS(=O)(=O)c1ccc(CCC)cc1-c1ccc(Cn2c(CCC)nc3ccccc32)cc1		14	460				
CCCCOC(=O)NS(=O)(=O)c1ccc(CCC)cc1-c1ccc(Cn2c(Cc3ccccc3)nc3ccccc32)cc1		15	> 3000				
CCCCOC(=O)NS(=O)(=O)c1ccc(CCC)cc1-c1ccc(Cn2cnc3ccccc32)cc1		29	> 1000	10	5	5	
CCCCOC(=O)NS(=O)(=O)c1ccc(CCC)cc1-c1ccc(Cn2c(-c3ccccc3)nc3ccccc32)cc1		590	> 1000				
CCCCOC(=O)NS(=O)(=O)c1ccc(CCC)cc1-c1ccc(Cn2c(C(C)C)nc3ccccc32)cc1		4	390				100
CCCCOC(=O)NS(=O)(=O)c1ccc(CCC)cc1-c1ccc(Cn2c(C(C)(C)C)nc3ccccc32)cc1		5.3	> 1000	12	20	7	
CCCCOC(=O)NS(=O)(=O)c1ccc(CCC)cc1-c1ccc(Cn2c(CC)nc3ccccc32)cc1		11	710				
CCCCOC(=O)NS(=O)(=O)c1ccc(CCC)cc1-c1ccc(Cn2c(C34CC5CC(CC(C5)C3)C4)nc3ccccc32)cc1		460	> 3000				
CCCCOC(=O)NS(=O)(=O)c1ccc(CCC)cc1-c1ccc(Cn2c(C3CCCCC3)nc3ccccc32)cc1		130	> 3000				
CCCCOC(=O)NS(=O)(=O)c1ccc(CCC)cc1-c1ccc(Cn2c(C(F)(F)F)nc3ccccc32)cc1		13	> 1000	10	7	4	
CCCCOC(=O)NS(=O)(=O)c1ccc(CCC)cc1-c1ccc(Cn2c(C3CCCC3)nc3ccccc32)cc1		35	410				10
CCCCOC(=O)NS(=O)(=O)c1ccc(CCC)cc1-c1ccc(Cn2c(C)nc3ccccc32)cc1		9.4	620	10	6	4	
CCCCOC(=O)NS(=O)(=O)c1ccc(CCC)cc1-c1ccc(Cn2c(-c3nccs3)nc3ccccc32)cc1		5.1	> 3000	21	16	5	
CCCCOC(=O)NS(=O)(=O)c1ccc(CCC)cc1-c1ccc(Cn2c(C3CC3)nc3ccccc32)cc1		31	710				
CCCc1ccc(S(=O)(=O)NC(=O)OCCCC(F)(F)F)c(-c2ccc(Cn3c(C(C)(C)C)nc4ccccc43)cc2)c1		4.5	> 3000	20	21	6	
